Measurements published in patent US20050208511A1, “DMBT1 as a clinical marker and uses thereof” (priority 2003, published 2005).

Legend:
DMBT1 [1] = assay: DNA microarray analysis of DMBT1 expression in endometrium of ovariectomized monkeys; type: in vivo, cynomolgus monkeys (Macaca fascicularis); conditions: for effect on estrogen-induced increase in DMBT1 mRNA levels: OVX monkeys with estrogen implant plus mifepristone 10 mg/kg/d, microarray analysis and PCR
Description: (§1) Adult female cynomolgus monkeys (Macaca fascicularis) were obtained from Covance Research Products. Following one complete menstrual cycle and in the follicular phase of the subsequent menstrual cycle, the animals were ovariectomized by a mid-ventral laparotomy. Ovariectomized (OVX) animals were subject to estrogen treatment after the fourth week following ovariectomy.
Following this period, the OVX monkeys were euthanized and tissue biopsies were taken from endometria of the monkeys treated with estrogen and the placebo. (Details of the endometrial features in OVX monkeys and OVX+estrogen-treated monkeys is described in Example 4.) The biopsies were placed in sterile containers, snap frozen immediately in liquid nitrogen, and stored at −80° C. until processed. Total RNA was prepared from each endometrial tissue biopsy, as described below.
Total RNA was prepared from endometrial tissue biopsies (approximately 50 mg each) using RNAzol™ (Tel-Test, Friendswood, Tex.), as follows. Two milliliters of RNAzol™ were used per 100 mg of tissue. Tissues were homogenized for 2 to 3 minutes using a Tissue Tearor homogenizer (Model No. 985-370; BioSpec Products, Bartlesville, Okla.), then transferred to a glass mortar bowl. The tissues were ground with at least 10 strokes of the pestle until a clear suspension was obtained. The homogenates were transferred to a polypropylene conical flask, to which 0.1 mL of chloroform per 1 mL of homogenate was added. The mixtures were then shaken vigorously for 1 minute. The suspensions were then transferred to a 2 mL microcentrifuge tube and centrifuged for 15. minutes at 12000 g and at 4° C. in a fixed angle rotor using a Biofuge 17R centrifuge (Baxter, Deerfield, Ill.). The aqueous phase was carefully transferred to a new microcentrifuge tube. An equal volume of isopropanol was added to the aqueous phase, mixed gently, and incubated at 4° C. for 15 minutes. RNA was pelleted by centrifuging the mixture for 15 minutes at 12000 g and at 4° C. as described above. The supernatant was removed and the pellet washed with 75% (v/v) ethanol (Pharmco Products, Brookfield, Conn.), followed by centrifugation at 7500 g for 8 minutes at 4° C. The supernatant was removed, and then the RNA pellet was air-dried briefly and resuspended in RNase-free water (Promega, Madison, Wis.). The samples were then treated with Amplification Grade RNase-free DNase I to remove any residual DNA (Invitrogen, Carlsbad, Calif.). Specifically, twenty micrograms of RNA were treated in a reaction volume of 0.1 mL, containing 1× DNase I reaction buffer and 10 units of DNase I. The reaction continued at room temperature for 15 minutes. […]

endometrium = assay: average endometrial thickness in treated monkeys; type: in vivo, cynomolgus monkeys (Macaca fascicularis); conditions: Ovx/E2 + PRM 10 mg/kg daily oral, 19 days
Description: as §1
Animals and treatment were the same as Example 1 with the following exceptions. To study the effect of PRMs on the endometrium and gene expression, groups of three ovariectomized (OVX) monkeys were given an estrogen implant (E2), plus daily oral doses of the following PRMs for 19 days: mifepristone at 10 mg/kg/d; 17N11-DE (17β-N-substituted-11β-dimethylaminophenyl-estra-4,9-dien-3-one) 1.0, 3.0, or 10 mg/kg/d; 17N11-PE (17β-N-substituted-11β-piperidinylphenyl-estra-4,9-dien-3-one) at 1.0, 3.0, or 10 mg/kg/d. A placebo (0.5% methylcellulose) was administered as a control. 17N11-DE and 17N11-PE are two PRMs that have been described in PCT Publication No. WO 99/62928. Tissue samples were taken from endometria and myometria for histological analysis.

DMBT1 [2] = assay: quantitative RT-PCR of DMBT1 in uterus of ovariectomized rats; type: in vivo, Wistar rats; conditions: OVX rats, ethinyl estradiol + medroxyprogesterone acetate + 10 mg/kg mifepristone (FIG. 3B)
Method: Six weeks old ovariectomized Wistar rats (Charles River, Wilmington, Mass.) were dosed for either one day or six weeks with vehicle or test compounds. All treatments were delivered orally, once daily, in 0.5% methylcellulose or sesame oil. After treatment, the uteri were removed, total RNA was purified from the tissues using TRIzol reagent (Invitrogen, Carlsbad, Calif.) as directed by the manufacturer.
Quantitative reverse transcription-polymerase chain reactions (RT-PCR) of DMBT1 from rat RNA samples were carried out using a One-Step RT-PCR Master Mix Kit (Applied Biosystems, Foster City, Calif.) and an ABI Prism 7000 Sequence Detection System (Applied Biosystems), as described by the manufacturer. Commercially available primers and FAM-labeled MGB probes for human and rat DMBT1 (catalog numbers Hs00244827_ml and Rn00575705_ml, respectively) were obtained from Applied Biosystems (Foster City, Calif.). Messenger RNA levels were normalized against 18S ribosomal RNA levels determined using primers and a VIC- and TAMRA-labeled probe from the same vendor.

uterus = assay: uterine weight in 22-day-old female rats; type: in vivo, Sprague Dawley rats; conditions: oral; for uterine weight on co-treatment with estrone: 70 μg/kg/day estrone + 1 mg/kg/day compound, three days (FIG. 1); for uterine weight: compound alone, three days, estrone 70 μg/kg/day, others 1 mg/kg/day, vs control (FIG. 1)
Method: (§2) Ten groups of 22-day-old female Sprague Dawley rats (three animals per group) were used to evaluate the effects of estrone, tamoxifen, raloxifene, and ICI 182780 on DMBT1 expression in the uterus. The following groups of rats were treated for three days as follows:
(§3) All treatments were delivered orally in 0.5% Methocel. After treatment the animals were euthanized and the uteri were collected, weighed, frozen in liquid nitrogen, and stored at −20° C. RNA was purified from the frozen uteri using 1.0 mL of TRIzol Reagent (Invitrogen) and a PowerGen 25 tissue homogenizer (Fisher Scientific), according to the manufacturer's instructions.
In rats, uteri increase in size under the proliferative influence of estrogen, and this increase in size can be measured by weighing the tissues.
Administration of the treatments and collection of tissue samples were carried out according to the procedure described in Example 2. RNA was purified, blotted and hybridized to radioactively labeled rat ebnerin cDNA as in described in Example 2.

DMBT1 [3] = assay: Northern analysis of DMBT1 expression in rat uterus; type: in vivo, Sprague Dawley rats; conditions: 70 μg/kg/day estrone + 1 mg/kg/day compound, relative to estrone alone (FIG. 3A)
Method: as §2, §3
Northern analysis was performed to determine gene expression, including DMBT1 expression, in the uterus of control and treated rats. For gel electrophoresis, samples containing 2 μg of total RNA in a volume of 2 μL of water were added to 6 microliters of formaldehyde loading dye (Ambion) and incubated at 65° C. for 20 minutes. One microliter of a 0.1 mg/ml ethidium bromide solution was then added to each sample. […] The RNA was transferred to a Hybond-N membrane (Amersham) for […] by capillary transfer blotting, using 10×SSC (0.15 M Sodium citrate, pH 7.0, 1.5 M NaCl), after which the membranes were stained with ethidium bromide, destained with water, and photographed for lane loading comparison. The membranes were then air-dried and kept at room temperature until hybridization.
A glycerol stock of a bacterial clone carrying a plasmid (pINCY) containing the rat ebnerin (DMBT1) gene was obtained from Incyte Genomics (ID#: 0000101155000011). […] One colony was selected and used to inoculate 200 mL of Lennox L Broth (Sigma)+50 μg/mL ampicillin (Sigma). The liquid culture was grown overnight at 37° C. and the bacteria were collected by centrifugation. Purification of plasmid DNA was carried out using a QIAfilter plasmid maxi kit (QIAgen) according to the manufacturer's instructions.
Purified pINCY/DMBT1 was treated with the restriction enzymes EcoRI and NotI (Promega) for the preparation and isolation of a 1,174 bp DNA fragment containing the ebnerin probe (DMBT1). The products of the restriction enzyme reaction were separated by electrophoresis on a 1× TAE, 1% SeaKem Gold Agarose Reliant gel, and the band corresponding to the 1.174 kb DNA ebnerin clone was excised. The ebnerin DNA probe was purified from the gel slice using a QIAquick Gel Extraction Kit (QIAgen) according to the manufacturer's instructions. Bound DNA was eluted from the QIAgen column with 50 μL of elution buffer. The ebnerin DNA probe in the eluate was quantified by comparison to a DNA standard by gel electrophoresis. The ebnerin DNA probe was then diluted to a final concentration of 25 ng/μL.
Random-primed probe was made from 25 ng of the purified ebnerin DNA using a DECAprime II kit (Ambion) and Redivue α-^32P dATP (10 mCi/mL) (Amersham) according to the manufacturer's instructions, with the exception that the reaction was incubated for 30 minutes at 37° C. After adding EDTA to stop the reaction, the labeled probe was purified using a QIAquick Nucleotide Removal Kit (QIAgen) according to the manufacturer's instructions, with the final volume of eluted probe being 50 μL. Two microliters were counted in a scintillation counter to ensure optimal radionuclide incorporation (>2×10^6 cpm/μL).
The blot membrane as described in section A was wet in 2×SSC buffer (Sigma) for 15 minutes, then pre-hybridized in 10 mL RapidHyb (Amersham) at 65° C. for 20 minutes. The probe was boiled for 10 minutes, and 25 μL was added to 10 mL of RapidHyb, pre-warmed to 65° C. The blot membrane was added to the diluted probe solution and incubated, with rotation, in a hybridization oven for approximately 10 hours.
The membrane was removed from the probe-containing solution and rinsed twice with 2×SSPE +0.5% SDS+0.5% pyrophosphate at room temperature, and then washed once, with gentle agitation, for 30 minutes at room temperature in the same solution.

DMBT1 [4] = assay: immunohistochemical analysis of DMBT1 expression in rat uterus; type: in vivo, Wistar rats; conditions: OVX rats dosed six weeks; compared with estrogen (ethinyl estradiol)
Method: Tissues were trimmed and processed for paraffin embedding according to conventional methods. Five-micron sections were cut, mounted onto SuperFrost Plus+(Fisher Scientific, Pittsburgh, Pa.) microscopic slides and dried overnight. […] Briefly, tissue sections on microscopic slides were dewaxed and re-hydrated. Slides were microwaved for 5 min in Target buffer (Dako, Carpenturia, Calif.), cooled, placed in phosphate-buffered saline (PBS, pH 7.4) and treated with 3% (v/v) H2O2 for 10 min at room temperature. All incubations (30 min each) and washes were performed at room temperature. Normal rabbit blocking serum (Vector Labs, Burlingame, Calif.) was placed on all slides for 10 min. After a brief rinse in PBS, sections were treated with goat polyclonal DMBT1 primary antibody (1:25, Hypromatrix, Worcester, Mass.). Slides were then washed in PBS and treated with rabbit anti-goat biotinylated secondary antibodies (Vector Labs). […]
The rabbit polyclonal PCNA (proliferating cell nuclear antigen) antibody (1:4000; Sigma, St. Louis, Mo.) was detected using the HRP:SG detection system as described for routine single IHC, except the use of the SG chromogen (Vector Labs). […] DMBT1 was then detected using the Fast Red chromogen (Sigma, St. Louis, Mo.). […]

luminal epithelium = luminal epithelium thickening in rat uterus sections; type: in vivo, Wistar rats; conditions: OVX rats dosed six weeks, compared to sham and ovariectomized control; estrogen = ethinyl estradiol
Method: Mature, six week-old ovariectomized or sham-operated Wistar rats (Charles River) were dosed with ethinyl estradiol, tamoxifen or raloxifene for six weeks. Uteri were removed, sectioned for immunohistochemical analysis for DMBT1 expression using a polyclonal goat antibody against the human protein.
Tissues were trimmed and processed for paraffin embedding according to conventional methods. Five-micron sections were cut, mounted onto SuperFrost Plus+(Fisher Scientific, Pittsburgh, Pa.) microscopic slides and dried overnight. The protocols for routine single immunohistochemistry (IHC) have been described previously (D'Andrea et al., 2001, Biotechnic Histochem. 76:97-106). Briefly, tissue sections on microscopic slides were dewaxed and re-hydrated. Slides were microwaved for 5 min in Target buffer (Dako, Carpenturia, Calif.), cooled, placed in phosphate-buffered saline (PBS, pH 7.4) and treated with 3% (v/v) H2O2 for 10 min at room temperature. All incubations (30 min each) and washes were performed at room temperature. Normal rabbit blocking serum (Vector Labs, Burlingame, Calif.) was placed on all slides for 10 min. After a brief rinse in PBS, sections were treated with goat polyclonal DMBT1 primary antibody (1:25, Hypromatrix, Worcester, Mass.). Slides were then washed in PBS and treated with rabbit anti-goat biotinylated secondary antibodies (Vector Labs). After washing in PBS, the avidin-biotin-horseradish peroxidase complex reagent (HRP, Vector Labs) was added. All slides were washed and treated with 3,3′-diaminobenzidine (DAB, Biomeda, Foster City, Calif.) two times for 5 min each, rinsed in distilled water, and counterstained with hematoxylin.

SMILES	effect on estrogen-induced increase in DMBT1 mRNA levels (DMBT1 [1])	effect on estrogen-induced increase in DMBT1 mRNA levels (DMBT1 [1]; listed as Mifepristone)	repression of estrogen-induced DMBT1 mRNA levels (DMBT1 [1]; Ovx/E2 + 10 mg/kg, microarray (FIG. 7))	Endometrial Thickness (mm) (endometrium)	Endometrial Thickness (mm) (endometrium; listed as Mif)	effect on progestin blockade of DMBT1 mRNA increase (DMBT1 [2])	uterine weight on co-treatment with estrone (uterus)	uterine weight (uterus)	DMBT1 expression on coadministration with estrone (DMBT1 [3])	cell levels of DMBT1 (immunostaining) in luminal epithelium (DMBT1 [4])	thickening of the luminal epithelium (luminal epithelium)
CC#C[C@]1(O)CC[C@H]2[C@@H]3CCC4=CC(=O)CCC4=C3[C@@H](c3ccc(N(C)C)cc3)C[C@@]21C [mifepristone]	inhibited	prevented the increase in DMBT1 mRNA levels	about 20 fold	shrinks to about the thickness of that seen with leuprolide-treated tissue	1.17 mm	blocked in turn	–	–	–	–	–
O=C(c1ccc(OCCN2CCCCC2)cc1)c1c(-c2ccc(O)cc2)sc2cc(O)ccc12 [raloxifene]	–	–	–	–	–	–	lower uterine weights, as compared to estrone	did not significantly affect uterine weight	additive increase	higher cell levels of DMBT1 than estrogen	not with raloxifene treatment
CC/C(=C(\c1ccccc1)c1ccc(OCCN(C)C)cc1)c1ccccc1 [tamoxifen]	–	–	–	–	–	–	lower uterine weights, as compared to estrone	increases uterine weight only moderately	increased slightly	higher cell levels of DMBT1 than estrogen	even more pronounced
